According to patent US20250243196A1, “CITRON KINASE INHIBITORS” (The Cleveland Clinic Foundation, priority 2021, published 2025):

Key:
Type in all cases: biochemical
Mnk2 = Mnk2 (Homo sapiens (Human), UniProt Q9HBH9); test: KinaseProfiler radiometric assay (14-664KP); conditions: mean of at least two independent experiments
Description: In another aspect, disclosed is a method of inhibiting citron kinase in a sample, comprising contacting the sample with a compound described herein (e.g., a compound of formula (I) or a pharmaceutically acceptable salt thereof), or a pharmaceutical composition described herein (e.g., a pharmaceutical composition comprising a compound of formula (I) or a pharmaceutically acceptable salt thereof), in an amount effective to inhibit citron kinase. In some embodiments, the step of contacting the sample with the compound comprises administering the compound to a subject (e.g., a subject) suffering from cancer. Methods of determining kinase inhibition are well known in the art. For example, kinase activity of an enzyme and the inhibitory capacity of a test compound can be determined by measuring enzyme specific phosphorylation of a substrate. Commercial assays and kits can be employed. For example, kinase inhibition can be determined using a radiometric binding assay, such as using KinaseProfiler™ technology (Eurofins Discovery). This assay method directly detects product formation without the use of modified substrates or coupling enzymes. […]
The effect of various compounds on the inhibition of other kinases has also been determined. Table 2 reports measured IC50 values; value units are nanomolar inhibition.

ALK6(h) = ALK6(h) (Homo sapiens (Human), UniProt O00238); test: KinaseProfiler panel; design: dose or concentration left out as unconfirmed; conditions: activity remaining
Chain of ALK6(h) (O00238 14-502): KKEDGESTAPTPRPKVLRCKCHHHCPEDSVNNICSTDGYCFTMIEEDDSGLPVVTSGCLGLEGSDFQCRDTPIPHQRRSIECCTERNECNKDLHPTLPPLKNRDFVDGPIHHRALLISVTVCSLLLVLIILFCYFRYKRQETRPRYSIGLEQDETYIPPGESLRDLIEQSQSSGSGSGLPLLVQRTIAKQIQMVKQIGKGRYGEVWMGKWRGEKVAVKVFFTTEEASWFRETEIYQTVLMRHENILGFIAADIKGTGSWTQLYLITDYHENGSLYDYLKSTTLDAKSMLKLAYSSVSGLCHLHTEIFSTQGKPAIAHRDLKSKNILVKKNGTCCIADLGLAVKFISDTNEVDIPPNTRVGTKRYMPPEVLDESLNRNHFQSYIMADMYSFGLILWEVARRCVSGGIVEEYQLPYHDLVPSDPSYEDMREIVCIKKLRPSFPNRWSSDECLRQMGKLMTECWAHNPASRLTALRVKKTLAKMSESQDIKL

CDK2/cyclinE(h) = CDK2/cyclinE(h) (Homo sapiens (Human), UniProt P24941); test: KinaseProfiler panel; design: dose or concentration left out as unconfirmed; conditions: activity remaining
CDK3/cyclinE(h) = CDK3/cyclinE(h) (Homo sapiens (Human), UniProt Q00526); test: KinaseProfiler panel; design: dose or concentration left out as unconfirmed; conditions: activity remaining
CDK5/p25(h) = CDK5/p25(h) (Homo sapiens (Human), UniProt Q00535); test: KinaseProfiler panel; design: dose or concentration left out as unconfirmed; conditions: activity remaining
DMPK(h) = DMPK(h) (Homo sapiens (Human), UniProt Q09013); test: KinaseProfiler panel; design: dose or concentration left out as unconfirmed; conditions: activity remaining
DYRK3(h) = DYRK3(h) (Homo sapiens (Human), UniProt O43781); test: KinaseProfiler panel; design: dose or concentration left out as unconfirmed; conditions: activity remaining
Chain of DYRK3(h) (O43781 whole entry): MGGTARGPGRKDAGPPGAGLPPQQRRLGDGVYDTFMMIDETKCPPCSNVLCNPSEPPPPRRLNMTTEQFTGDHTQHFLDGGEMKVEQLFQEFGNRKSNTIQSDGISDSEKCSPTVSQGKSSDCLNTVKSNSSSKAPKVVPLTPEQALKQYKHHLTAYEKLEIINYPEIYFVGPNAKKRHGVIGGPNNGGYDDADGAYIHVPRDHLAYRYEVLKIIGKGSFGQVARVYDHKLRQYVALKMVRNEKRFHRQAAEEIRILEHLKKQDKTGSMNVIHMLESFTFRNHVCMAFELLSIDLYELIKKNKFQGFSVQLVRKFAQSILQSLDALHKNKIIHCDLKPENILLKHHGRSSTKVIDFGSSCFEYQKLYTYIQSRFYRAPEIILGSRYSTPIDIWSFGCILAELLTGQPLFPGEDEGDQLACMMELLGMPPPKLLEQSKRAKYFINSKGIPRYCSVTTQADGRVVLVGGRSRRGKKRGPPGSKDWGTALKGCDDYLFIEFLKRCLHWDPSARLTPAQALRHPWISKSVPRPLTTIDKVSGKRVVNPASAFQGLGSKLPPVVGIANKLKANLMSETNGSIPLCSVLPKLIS

EphB3(h) = EphB3(h) (Homo sapiens (Human), UniProt P54753); test: KinaseProfiler panel; design: dose or concentration left out as unconfirmed; conditions: activity remaining
GRK2(h) = GRK2(h) (Homo sapiens (Human), UniProt P25098); test: KinaseProfiler panel; design: dose or concentration left out as unconfirmed; conditions: activity remaining
Haspin(h) = Haspin(h) (Homo sapiens (Human), UniProt Q8TF76); test: KinaseProfiler panel; design: dose or concentration left out as unconfirmed; conditions: activity remaining
IRR(h) = IRR(h) (Homo sapiens (Human), UniProt P14616); test: KinaseProfiler panel; design: dose or concentration left out as unconfirmed; conditions: activity remaining
Chain of IRR(h) (P14616 27-1297): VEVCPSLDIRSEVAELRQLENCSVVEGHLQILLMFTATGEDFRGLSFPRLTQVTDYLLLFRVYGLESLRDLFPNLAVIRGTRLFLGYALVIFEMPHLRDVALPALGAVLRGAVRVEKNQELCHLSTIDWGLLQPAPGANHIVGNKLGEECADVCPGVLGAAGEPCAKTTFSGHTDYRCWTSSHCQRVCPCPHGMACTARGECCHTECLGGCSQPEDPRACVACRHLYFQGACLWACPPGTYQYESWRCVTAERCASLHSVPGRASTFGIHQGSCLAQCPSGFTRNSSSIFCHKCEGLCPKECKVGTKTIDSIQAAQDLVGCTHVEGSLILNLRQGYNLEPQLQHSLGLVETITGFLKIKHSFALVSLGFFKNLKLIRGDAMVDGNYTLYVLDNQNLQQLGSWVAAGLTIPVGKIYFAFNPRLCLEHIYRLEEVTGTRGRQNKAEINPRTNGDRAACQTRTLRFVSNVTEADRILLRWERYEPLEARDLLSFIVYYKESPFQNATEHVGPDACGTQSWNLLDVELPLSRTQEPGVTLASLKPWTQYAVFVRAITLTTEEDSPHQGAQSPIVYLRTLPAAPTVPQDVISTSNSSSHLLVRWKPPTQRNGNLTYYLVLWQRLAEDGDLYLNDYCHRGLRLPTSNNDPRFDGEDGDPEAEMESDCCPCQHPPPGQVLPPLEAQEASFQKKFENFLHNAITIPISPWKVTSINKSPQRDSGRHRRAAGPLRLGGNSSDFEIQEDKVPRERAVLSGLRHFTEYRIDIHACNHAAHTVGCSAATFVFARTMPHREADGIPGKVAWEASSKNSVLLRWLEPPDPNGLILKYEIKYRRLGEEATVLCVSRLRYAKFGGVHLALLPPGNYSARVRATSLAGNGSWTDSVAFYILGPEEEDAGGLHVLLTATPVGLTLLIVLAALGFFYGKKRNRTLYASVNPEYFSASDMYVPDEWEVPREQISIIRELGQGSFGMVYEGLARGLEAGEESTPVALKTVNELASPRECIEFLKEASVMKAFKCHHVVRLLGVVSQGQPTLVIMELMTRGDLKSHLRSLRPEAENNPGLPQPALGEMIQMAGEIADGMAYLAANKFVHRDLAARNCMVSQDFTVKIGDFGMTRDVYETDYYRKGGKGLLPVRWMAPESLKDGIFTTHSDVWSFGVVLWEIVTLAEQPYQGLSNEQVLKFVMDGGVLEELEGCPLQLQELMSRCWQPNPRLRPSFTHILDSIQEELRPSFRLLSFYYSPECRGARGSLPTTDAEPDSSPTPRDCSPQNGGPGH

LATS2(h) = LATS2(h) (Homo sapiens (Human), UniProt Q9NRM7); test: KinaseProfiler panel; design: dose or concentration left out as unconfirmed; conditions: activity remaining
Lck(h) activated = Lck(h) activated (Homo sapiens (Human), UniProt P06239); test: KinaseProfiler panel; design: dose or concentration left out as unconfirmed; conditions: activity remaining
Mer(h) = Mer(h) (Homo sapiens (Human), UniProt Q12866); test: KinaseProfiler panel; design: dose or concentration left out as unconfirmed; conditions: activity remaining
Met(h) = Met(h) (Homo sapiens (Human), UniProt P08581); test: KinaseProfiler panel; design: dose or concentration left out as unconfirmed; conditions: activity remaining
MuSK(h) = MuSK(h) (Homo sapiens (Human), UniProt O15146); test: KinaseProfiler panel; design: dose or concentration left out as unconfirmed; conditions: activity remaining
NEK2(h) = NEK2(h) (Homo sapiens (Human), UniProt P51955); test: KinaseProfiler panel; design: dose or concentration left out as unconfirmed; conditions: activity remaining
Chain of NEK2(h) (P51955 whole entry): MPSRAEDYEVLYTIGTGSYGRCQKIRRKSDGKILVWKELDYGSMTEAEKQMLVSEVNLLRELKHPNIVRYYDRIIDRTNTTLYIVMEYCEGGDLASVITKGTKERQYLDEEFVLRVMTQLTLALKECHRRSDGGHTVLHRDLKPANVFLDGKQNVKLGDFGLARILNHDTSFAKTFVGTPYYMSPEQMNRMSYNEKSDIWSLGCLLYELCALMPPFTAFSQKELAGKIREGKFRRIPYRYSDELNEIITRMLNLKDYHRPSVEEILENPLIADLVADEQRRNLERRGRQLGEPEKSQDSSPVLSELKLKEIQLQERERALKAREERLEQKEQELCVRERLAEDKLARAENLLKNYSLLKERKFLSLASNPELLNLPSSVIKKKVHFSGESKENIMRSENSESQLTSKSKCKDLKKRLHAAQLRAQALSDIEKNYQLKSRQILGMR

PDK1(h) = PDK1(h) (Homo sapiens (Human), UniProt O15530); test: KinaseProfiler panel; design: dose or concentration left out as unconfirmed; conditions: activity remaining
PEK(h) = PEK(h) (Homo sapiens (Human), UniProt Q9NZJ5); test: KinaseProfiler panel; design: dose or concentration left out as unconfirmed; conditions: activity remaining
Chain of PEK(h) (Q9NZJ5 30-1116): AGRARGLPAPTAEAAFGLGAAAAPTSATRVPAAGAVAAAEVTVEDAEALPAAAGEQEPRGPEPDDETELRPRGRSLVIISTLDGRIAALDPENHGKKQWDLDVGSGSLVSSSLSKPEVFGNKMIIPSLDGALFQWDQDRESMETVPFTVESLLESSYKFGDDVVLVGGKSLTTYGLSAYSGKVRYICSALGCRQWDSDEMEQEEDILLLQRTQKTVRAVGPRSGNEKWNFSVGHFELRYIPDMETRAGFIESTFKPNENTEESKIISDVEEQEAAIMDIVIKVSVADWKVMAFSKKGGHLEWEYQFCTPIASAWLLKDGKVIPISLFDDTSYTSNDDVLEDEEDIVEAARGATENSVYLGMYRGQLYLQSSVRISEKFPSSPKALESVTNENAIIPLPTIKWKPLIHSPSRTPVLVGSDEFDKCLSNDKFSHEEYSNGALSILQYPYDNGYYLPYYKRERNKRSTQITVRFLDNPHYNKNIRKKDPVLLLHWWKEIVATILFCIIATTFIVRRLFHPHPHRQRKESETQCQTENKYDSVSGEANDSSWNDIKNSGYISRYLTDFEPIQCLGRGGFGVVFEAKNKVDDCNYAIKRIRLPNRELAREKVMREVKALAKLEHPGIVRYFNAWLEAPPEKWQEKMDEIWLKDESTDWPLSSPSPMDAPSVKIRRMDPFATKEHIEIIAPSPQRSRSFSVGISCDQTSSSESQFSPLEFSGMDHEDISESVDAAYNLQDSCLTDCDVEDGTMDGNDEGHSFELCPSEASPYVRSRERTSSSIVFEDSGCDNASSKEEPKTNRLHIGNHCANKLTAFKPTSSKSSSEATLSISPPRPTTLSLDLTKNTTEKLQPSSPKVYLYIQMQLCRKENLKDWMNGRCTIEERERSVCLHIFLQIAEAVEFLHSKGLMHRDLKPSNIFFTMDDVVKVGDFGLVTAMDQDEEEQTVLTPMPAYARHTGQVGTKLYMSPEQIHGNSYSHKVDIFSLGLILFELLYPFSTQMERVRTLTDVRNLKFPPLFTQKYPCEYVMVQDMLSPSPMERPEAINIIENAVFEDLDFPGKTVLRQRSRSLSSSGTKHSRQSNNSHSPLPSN

ROCK-II(h) = ROCK-II(h) (Homo sapiens (Human), UniProt O75116); test: KinaseProfiler panel; design: dose or concentration left out as unconfirmed; conditions: activity remaining
Rsk4(h) = Rsk4(h) (Homo sapiens (Human), UniProt Q9UK32); test: KinaseProfiler panel; conditions: activity remaining
SRPK1(h) = SRPK1(h) (Homo sapiens (Human), UniProt Q96SB4); test: KinaseProfiler panel; design: dose or concentration left out as unconfirmed; conditions: activity remaining
Chain of SRPK1(h) (Q96SB4 whole entry): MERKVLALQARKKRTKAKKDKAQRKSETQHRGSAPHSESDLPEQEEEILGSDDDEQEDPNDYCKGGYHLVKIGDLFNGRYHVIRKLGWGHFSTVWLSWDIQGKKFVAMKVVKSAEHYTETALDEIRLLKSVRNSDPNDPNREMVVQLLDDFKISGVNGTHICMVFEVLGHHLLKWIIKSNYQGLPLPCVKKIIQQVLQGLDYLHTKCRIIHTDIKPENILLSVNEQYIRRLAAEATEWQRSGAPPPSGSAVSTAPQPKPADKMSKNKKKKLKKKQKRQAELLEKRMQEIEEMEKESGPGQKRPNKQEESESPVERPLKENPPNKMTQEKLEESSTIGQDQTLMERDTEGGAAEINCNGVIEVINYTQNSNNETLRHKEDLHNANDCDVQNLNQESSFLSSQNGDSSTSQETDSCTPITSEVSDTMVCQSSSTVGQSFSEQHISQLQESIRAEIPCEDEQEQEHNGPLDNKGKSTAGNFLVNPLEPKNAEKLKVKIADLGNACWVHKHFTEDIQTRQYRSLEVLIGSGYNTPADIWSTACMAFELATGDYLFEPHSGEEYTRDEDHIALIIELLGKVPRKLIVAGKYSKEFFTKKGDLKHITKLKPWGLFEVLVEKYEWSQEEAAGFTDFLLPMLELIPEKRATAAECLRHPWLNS

TAK1(h) = TAK1(h) (Homo sapiens (Human), UniProt O43318); test: KinaseProfiler panel; design: dose or concentration left out as unconfirmed; conditions: activity remaining
TLK1(h) = TLK1(h) (Homo sapiens (Human), UniProt Q9UKI8); test: KinaseProfiler panel; conditions: activity remaining
Txk(h) = Txk(h) (Homo sapiens (Human), UniProt P42681); test: KinaseProfiler panel; design: dose or concentration left out as unconfirmed; conditions: activity remaining
ZIPK(h) = ZIPK(h) (Homo sapiens (Human), UniProt O43293); test: KinaseProfiler panel; design: dose or concentration left out as unconfirmed; conditions: activity remaining

Chain of Mnk2 (Q9HBH9 whole entry): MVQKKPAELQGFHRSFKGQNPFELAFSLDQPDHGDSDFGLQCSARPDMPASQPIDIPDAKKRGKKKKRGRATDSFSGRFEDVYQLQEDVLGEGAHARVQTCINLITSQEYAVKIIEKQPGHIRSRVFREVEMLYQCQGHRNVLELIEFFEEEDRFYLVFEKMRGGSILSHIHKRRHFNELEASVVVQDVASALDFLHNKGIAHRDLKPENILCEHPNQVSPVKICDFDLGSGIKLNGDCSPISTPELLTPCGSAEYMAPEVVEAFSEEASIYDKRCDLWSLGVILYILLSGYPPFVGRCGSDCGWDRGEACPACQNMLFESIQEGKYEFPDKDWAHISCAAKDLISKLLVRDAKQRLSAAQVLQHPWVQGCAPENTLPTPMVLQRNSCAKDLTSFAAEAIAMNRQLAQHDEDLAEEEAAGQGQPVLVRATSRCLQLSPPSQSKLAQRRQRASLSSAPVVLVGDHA

For `Cc1cc2c(-c3ccc(NC(=O)[C@H](N)CC(C)(C)C)cc3C)ccnc2[nH]1` [Compound F-90, (2R)-2-Amino-4,4-dimethyl-N-[3-methyl-4-(2-methyl-1H-pyrrolo[2,3-b]pyridin-4-yl)phenyl]pentanamide], the IC50 (Mnk2) was 2.18 µM, the “% Activity” value (ALK6(h)) was 74% and the “% Activity” value (CDK2/cyclinE(h)) was 92%. The “% Activity” value (CDK3/cyclinE(h)) was 102%, the “% Activity” value (CDK5/p25(h)) was 72% and the “% Activity” value (DMPK(h)) was 93%. For the same compound, the “% Activity” value (DYRK3(h)) was 99%, the “% Activity” value (EphB3(h)) was 79% and the “% Activity” value (GRK2(h)) was 95%. The “% Activity” value (Haspin(h)) was 140%, the “% Activity” value (IRR(h)) was 110% and the “% Activity” value (LATS2(h)) was 102%. The “% Activity” value (Lck(h) activated) was 119%, the “% Activity” value (Mer(h)) was 105% and the “% Activity” value (Met(h)) was 90%. For the same compound, the “% Activity” value (MuSK(h)) was 96%, the “% Activity” value (NEK2(h)) was 118% and the “% Activity” value (PDK1(h)) was 105%. The “% Activity” value (PEK(h)) was 91%, the “% Activity” value (ROCK-II(h)) was 96% and the “% Activity” value (Rsk4(h)) was 101%. The “% Activity” value (SRPK1(h)) was 95%, the “% Activity” value (TAK1(h)) was 91% and the “% Activity” value (TLK1(h)) was 82%. The “% Activity” value (Txk(h)) was 110% and the “% Activity” value (ZIPK(h)) was 94%.
